Results taken from patent US9212349B2, “Method to produce virus in cultured cells” (priority 2011, dated 2015).

How the values were obtained:
[1] = system: VZV; assay: Yield of cell-free infectious VZV from infected MRC5 cells, plaque assay on ARPE-19 cells; format: cell-based, varicella zoster virus; details: Example 6; MOI 1:100, 72 hours after infection; HSA, DHA 25 μM, AA 100 μM, with 10 μM α-T; cholesterol 13 μM
[2] = system: VZV; assay: as above; format: cell-based, varicella zoster virus; details: for VZV yield, fold change relative to NT / VZV yield in comparison to no treatment: MOI 1:50, 72 h; for VZV yield in comparison to no treatment: Example 5, lipids at 6 hpi plus 10 μM αT, HSA, OSA 25 μM, sonicated immediately
Procedure: For this test, MRC5 cells (passage 20-25) were seeded at a density of 300.000 cell/100 mm culture dish and grown in 15 ml of DMEM containing 10% fetal calf serum plus 2 mM glutamax (Invitrogen) at 35° C. A lipid mixture (LM-1, 1 ml/liter medium, Sigma Aldrich #L5146) was added to the cells either at the time of seeding or 1 day after seeding. Three days later, the culture medium was replaced with 10 ml growth medium containing 50 mM sucrose as a stabilizer. The cells were further incubated for 3 days and growth medium was replaced with fresh medium containing no sucrose. After cells reached confluence, they were infected with VZV by adding infected cells (1 infected cell/50 uninfected cells; infected cells were from a preparation frozen in a solution of 10% DMSO plus 90% fetal calf serum and stored in liquid nitrogen). At the time of infection, the cultures were re-fed with DMEM containing 10% fetal calf serum plus 2 mM glutamax. Arachidonic acid (AA)+alpha-tocopherol (αT) or DHA+αT were added at the indicated times. 72 hours after infection, cells were washed twice with PBS, and incubated in 10 ml of PBS containing 50 mM ammonium chloride for 50 minutes at 4° C. The cells were harvested and frozen in PSGC buffer (Harper et al., Arch Virol 143:1163-70, 1998) at −80° C. Infectious virus was subsequently quantified by plaque assay of sonicated cells on ARPE-19 cells (American Type Culture Collection). Results are set out in FIG. 3.
Briefly, in these repeat experiments, MRC5 cells were infected with VZV at an MOI=1:50. AA, DHA, and αT were added to the cells at 6 hpi as indicated. 72 hours after infection, the cells were harvested into PSGC buffer and frozen at −80° C. for later processing. After thawing, the cells were sonicated and the yield of cell free VZV quantified by standard plaque assay on ARPE-19 cells. Fold change relative to no treatment (NT) is shown. […] The fold-changes are the average of two independent infections.
In brief, MRC5 cells were infected with VZV at an M01=1:50. Lipid mixture 1(LM-1) was added to the cells immediately after cell seeding. At 6 hours after infection, up to about 100 μM AA or […] was added to cells together with up to about 10 μM αT. 72 hours after infection, the cells were harvested into PSGC buffer and either frozen at −80° C. and sonicated later for the release of virus (frozen cells) or immediately sonicated after harvesting and supernatants containing the cell-free VZV were frozen at −80° C. (frozen sup.) prior to titration. Cell-free VZV yield was quantified by plaque assay on APRE-19 cells. Fold change relative to no treatment (NT) is shown. The numbers above the bars indicate the amount of virus obtained per ml in the corresponding treatment. The results are set out in FIG. 5.
Briefly, MRC5 cells were infected with VZV at an MOI=1:50. Six hours after infection cells were treated with indicated combinations of lipids plus 10 μM αT. Hexacosanoic acid (HSA) and octacosanoic acid (OSA) were dissolved in 20 mg/ml α-cyclodextin (Sigma-Aldrich) in PBS by sonication and added to a solution of 10 mg/ml fatty acid-free BSA (Sigma-Aldrich) in PBS (1:1, v/v) to give a stock concentration of 10 mM for each fatty acid. HSA, OSA, and DHA were used at 25 μM, and AA was used at 25 μM. Two sets of fatty acid concentrations was used for combination treatments: DHA, AA, and HSA was either added at concentrations of 25 μM, 100 μM, and 25 μM (high), or 10 μM, 50 μM, and 10 μM (low), respectively. 72 hours after infection, the cells were harvested into PSGC buffer, sonicated immediately and the yield of cell free VZV quantified by plaque assay on ARPE-19 cells. Fold change relative to no treatment (NT) is shown. The fold-changes are the average of two independent infections.
Briefly, MRC5 cells were grown in DMEM containing 10% fetal calf serum, 2 mM glutamax (Invitrogen) at 35° C. as described in the text. […]

[3] = system: MRC5 cells; assay: Cytotoxicity evident upon visual inspection in VZV-infected MRC5 cells; format: cell-based, human; details: 100 μM
[4] = system: HCMV (AD169 strain); format: cell-based, human cytomegalovirus; details: for HCMV yield, fold change relative to no treatment (NT): MRC5, 0.5 IU/cell, additive 2 h after infection, OA/LA/LLA up to 100 μM, EPA 75 μM, DHA 50 μM, AG 250 μM, cholesterol 13 μM; for HCMV yield, fold change relative to no treatment (NT) / HCMV production relative to no treatment: 96 h; for Effect of including the fatty acid on the HCMV yield increase given by aminoguanidine: in the presence of aminoguanidine; for HCMV production relative to no treatment: Example 2, MRC5, 0.5 IU/cell, FIG. 2
Procedure: Cells were infected with the AD169 strain of HCMV at a multiplicity of 0.5 infectious units/cell, and immediately following a 2-hour adsorption period, cells were fed with medium (Dulbecco's Modified Eagle Medium, DMEM) containing 10% fetal calf serum plus various fatty acids, cholesterol and carbonyl scavenging compound. At 96 hours post infection, infectious virus in the medium was assayed by fluorescent focus assay using antibody to the HCMV IE1 protein.
Briefly, About 90% confluent MRC5 human fibroblasts were infected with HCMV at a multiplicity of 0.5 IU/cell. Two hours after infection, medium was replaced with fresh medium containing 10% fetal calf serum and either of oleic acid (OA, up to about 100 μM), linoliec acid (LA, up to about 100 μM), α-linolenic acid (LLA, up to about 100 μM), eicosapentaenoic acid (EPA, up to about 75 μM), or docosahexaenoic acid (DHA, up to about 50 μM). The experiment was also performed in the presence of either aminoguanidine (AG, up to about 250 μM) or cholesterol (chol., up to about 13 μM). Virus production at 96 hours after infection was determined by fluorescent focus assay in MRC-5 cells and shown as a fold change relative to no treatment (NT) which was 5×10^5 infectious units. The fold-changes are the average of two independent infections.
Briefly, about 90% confluent MRC5 fibroblasts were infected with HCMV at a multiplicity of 0.5 IU/cell. Two hours after infection, medium was replaced with fresh medium containing 10% fetal calf serum and α-tocopherol (α-T) or aminoguanidine (AG) at indicated concentrations. Virus production at 96 h after infection was determined by fluorescent focus assay in which MRC-5 cells and shown as a fold change relative to no treatment (NT). The fold-changes are the average of two independent infections. Results are set out in FIG. 2.

[5] = 25 μM fatty acid at 6 hpi, absence of αT

For CCCCC/C=C\C/C=C\C/C=C\C/C=C\CCCC(=O)O [AA, Arachidonic acid], the “VZV yield relative to no treatment” value [1] was “elevated the yield of VZV”, the “VZV yield, fold change relative to NT” value [2, 5] was “enhanced the yield of virus” and the “VZV yield, fold change relative to NT” value ([2]; 25 μM fatty acid at 6 hpi, presence of αT) was “increased the virus yield”. The “VZV yield, fold change relative to NT” value ([2]; 100 μM fatty acid at 6 hpi, absence of αT) was “inhibited virus production” and the “VZV yield, fold change relative to NT” value ([2]; 100 μM fatty acid at 6 hpi, presence of αT) was 5 fold.

With CC/C=C\C/C=C\C/C=C\C/C=C\C/C=C\C/C=C\CCC(=O)O [DHA, docosahexaenoic acid] the “VZV yield, fold change relative to NT” value [2, 5] was “about 1.5 fold”, the Cytotoxicity ([3]; absence of αT) was “toxic” and the Cytotoxicity ([3]; presence of αT) was “toxic”. The “HCMV yield, fold change relative to no treatment (NT)” value [4] was 4.6 fold.

For CC/C=C\C/C=C\C/C=C\C/C=C\C/C=C\CCCC(=O)O [EPA, eicosapentaenoic acid], the “HCMV yield, fold change relative to no treatment (NT)” value [4] was 2.5 fold.

With CCCCCCCCCCCCCCCCCCCCCCCCCC(=O)O [HSA, hexacosanoic acid] the “VZV yield relative to no treatment” value [1] was “elevated the yield of VZV” and the “VZV yield in comparison to no treatment” value [2] was “improved virus yields”.

With CCCCC/C=C\C/C=C\CCCCCCCC(=O)O [LA, linoleic acid] the “HCMV yield, fold change relative to no treatment (NT)” value [4] was “little effect on the yield” and the “Effect of including the fatty acid on the HCMV yield increase given by aminoguanidine” value ([4]; MRC5, 96 h) was “reduced”.

With CC/C=C\C/C=C\C/C=C\CCCCCCCC(=O)O [LLA, α-linolenic acid] the “HCMV yield, fold change relative to no treatment (NT)” value [4] was “about 1.2 fold” and the “Effect of including the fatty acid on the HCMV yield increase given by aminoguanidine” value ([4]; MRC5, 96 h) was “reduced”.

With CCCCCCCC/C=C\CCCCCCCC(=O)O [OA, oleic acid] the “Reduction of VZV production, factor” value ([2]; 100 μM) was 2 fold, the Cytotoxicity ([3]; absence of αT) was “without causing observable cellular toxicity” and the “HCMV yield, fold change relative to no treatment (NT)” value [4] was “reduced the yield”. The “Effect of including the fatty acid on the HCMV yield increase given by aminoguanidine” value ([4]; MRC5, 96 h) was “reduced”.

In the case of CCCCCCCCCCCCCCCCCCCCCCCCCCCC(=O)O [OSA, octacosanoic acid], the “VZV yield in comparison to no treatment” value [2] is reported as “improved virus yields”.

In the case of N=C(N)NN [aminoguanidine], the “HCMV production relative to no treatment” value [4] is reported as “enhances the production of HCMV” and the “HCMV yield, fold change relative to no treatment (NT)” value [4] is reported as “about 2.6 fold”.

With CC(C)CCC[C@@H](C)[C@H]1CC[C@H]2[C@@H]3CC=C4C[C@@H](O)CC[C@]4(C)[C@H]3CC[C@]12C [cholesterol] the “HCMV yield, fold change relative to no treatment (NT)” value [4] was “no effect” and the “Effect of cholesterol on the enhancing effects of fatty acids on HCMV yield” value ([4]; MRC5, 96 h, cholesterol up to about 13 μM) was “did not improve, and in some cases inhibited”.

For Cc1c(C)c2c(c(C)c1O)CC[C@@](C)(CCC[C@H](C)CCC[C@H](C)CCCC(C)C)O2 [αT, alpha-tocopherol], the “HCMV production relative to no treatment” value [4] was “enhances the production of HCMV”.
